Experimental data taken from doi:10.1101/2025.10.23.682519v1 (biorxiv, 2025).
pIC50: −log10 of the molar value.

Tests used:
Test in all cases: cell-based
[1] = target: human ZIP8 (hZIP8) (Homo sapiens, UniProt Q9C0K1)
[2] = target: human ZIP14 (hZIP14) isoform 1, HA-tagged (Homo sapiens, UniProt Q15043)
[3] = target: human ZIP14 (hZIP14) isoform 1, HA-tagged (Homo sapiens, UniProt Q15043, D443L)
Chain of human ZIP14 (hZIP14) isoform 1, HA-tagged (Homo sapiens, UniProt Q15043, D443L) (Q15043 31-492 D443L): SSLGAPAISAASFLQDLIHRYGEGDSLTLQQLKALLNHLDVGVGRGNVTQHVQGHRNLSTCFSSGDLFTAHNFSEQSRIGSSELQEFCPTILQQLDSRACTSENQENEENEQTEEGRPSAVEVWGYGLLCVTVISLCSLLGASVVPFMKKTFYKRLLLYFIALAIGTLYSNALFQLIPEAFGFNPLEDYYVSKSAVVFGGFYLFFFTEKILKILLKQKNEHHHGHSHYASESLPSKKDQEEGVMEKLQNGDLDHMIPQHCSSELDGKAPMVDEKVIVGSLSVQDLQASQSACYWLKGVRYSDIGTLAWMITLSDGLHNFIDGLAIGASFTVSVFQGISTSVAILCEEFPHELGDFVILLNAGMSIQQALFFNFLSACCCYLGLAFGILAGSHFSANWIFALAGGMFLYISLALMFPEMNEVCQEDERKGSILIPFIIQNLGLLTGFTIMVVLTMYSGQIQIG

Chain of human ZIP8 (hZIP8) (Q9C0K1 23-460): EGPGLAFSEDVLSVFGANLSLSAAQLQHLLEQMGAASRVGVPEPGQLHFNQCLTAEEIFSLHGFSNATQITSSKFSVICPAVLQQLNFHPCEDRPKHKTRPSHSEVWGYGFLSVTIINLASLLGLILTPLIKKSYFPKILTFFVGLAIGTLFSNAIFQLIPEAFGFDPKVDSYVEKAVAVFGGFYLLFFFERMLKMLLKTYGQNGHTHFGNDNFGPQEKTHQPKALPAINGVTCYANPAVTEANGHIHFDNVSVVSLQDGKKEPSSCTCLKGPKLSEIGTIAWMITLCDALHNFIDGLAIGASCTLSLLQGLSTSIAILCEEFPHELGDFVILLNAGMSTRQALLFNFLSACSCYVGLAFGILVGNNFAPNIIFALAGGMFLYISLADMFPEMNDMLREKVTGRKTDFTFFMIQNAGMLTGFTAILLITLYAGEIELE
Chain of human ZIP14 (hZIP14) isoform 1, HA-tagged (Homo sapiens, UniProt Q15043) (Q15043 31-492): as the sequence (Q15043 31-492 D443L) above, with L413D counted along it

In the case of O=C1NCN(c2ccccc2)C12CCN(CCc1ccccc1)CC2 [PPTD, 1-phenyl-8-(2-phenylethyl)-1,3,8-triazaspiro[4.5]decan-4-one], the pIC50 [1] was < 4.43, the pIC50 [2] was 5.05 and the pIC50 [3] was 4.72.
